US20240315299A1, “AMIDE COMPOUNDS AND THEIR USE AS FLAVOR MODIFIERS” (FIRMENICH INCORPORATED, priority 2021, published 2024)

Molecular target: T1, T1R umami taste receptor (Homo sapiens, UniProt Q7RTX0+Q7RTX1)
T1 sequence (Q7RTX1 21-841): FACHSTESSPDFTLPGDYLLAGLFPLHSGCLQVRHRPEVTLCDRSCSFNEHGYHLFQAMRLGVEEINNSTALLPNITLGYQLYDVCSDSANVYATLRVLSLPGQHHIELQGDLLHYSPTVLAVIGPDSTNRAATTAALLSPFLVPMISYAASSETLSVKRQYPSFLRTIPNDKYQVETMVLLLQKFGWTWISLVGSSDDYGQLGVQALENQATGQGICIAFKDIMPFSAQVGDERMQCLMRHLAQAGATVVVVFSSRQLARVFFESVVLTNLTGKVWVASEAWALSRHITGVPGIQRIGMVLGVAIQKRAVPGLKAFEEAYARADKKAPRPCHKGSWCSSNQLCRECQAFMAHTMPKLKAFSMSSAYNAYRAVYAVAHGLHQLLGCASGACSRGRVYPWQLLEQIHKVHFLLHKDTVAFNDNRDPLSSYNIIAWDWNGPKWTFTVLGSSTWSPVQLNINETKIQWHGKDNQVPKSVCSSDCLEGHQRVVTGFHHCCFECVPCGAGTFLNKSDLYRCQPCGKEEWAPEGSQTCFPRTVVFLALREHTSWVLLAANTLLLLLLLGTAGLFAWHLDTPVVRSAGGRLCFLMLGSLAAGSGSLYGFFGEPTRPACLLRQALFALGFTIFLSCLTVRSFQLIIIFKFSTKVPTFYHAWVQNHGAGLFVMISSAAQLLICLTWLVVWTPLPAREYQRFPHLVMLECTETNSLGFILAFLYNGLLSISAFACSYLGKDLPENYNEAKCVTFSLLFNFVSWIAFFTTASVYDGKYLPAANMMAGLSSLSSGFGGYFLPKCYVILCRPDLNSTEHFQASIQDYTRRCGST
T1 sequence (Q7RTX0 21-852): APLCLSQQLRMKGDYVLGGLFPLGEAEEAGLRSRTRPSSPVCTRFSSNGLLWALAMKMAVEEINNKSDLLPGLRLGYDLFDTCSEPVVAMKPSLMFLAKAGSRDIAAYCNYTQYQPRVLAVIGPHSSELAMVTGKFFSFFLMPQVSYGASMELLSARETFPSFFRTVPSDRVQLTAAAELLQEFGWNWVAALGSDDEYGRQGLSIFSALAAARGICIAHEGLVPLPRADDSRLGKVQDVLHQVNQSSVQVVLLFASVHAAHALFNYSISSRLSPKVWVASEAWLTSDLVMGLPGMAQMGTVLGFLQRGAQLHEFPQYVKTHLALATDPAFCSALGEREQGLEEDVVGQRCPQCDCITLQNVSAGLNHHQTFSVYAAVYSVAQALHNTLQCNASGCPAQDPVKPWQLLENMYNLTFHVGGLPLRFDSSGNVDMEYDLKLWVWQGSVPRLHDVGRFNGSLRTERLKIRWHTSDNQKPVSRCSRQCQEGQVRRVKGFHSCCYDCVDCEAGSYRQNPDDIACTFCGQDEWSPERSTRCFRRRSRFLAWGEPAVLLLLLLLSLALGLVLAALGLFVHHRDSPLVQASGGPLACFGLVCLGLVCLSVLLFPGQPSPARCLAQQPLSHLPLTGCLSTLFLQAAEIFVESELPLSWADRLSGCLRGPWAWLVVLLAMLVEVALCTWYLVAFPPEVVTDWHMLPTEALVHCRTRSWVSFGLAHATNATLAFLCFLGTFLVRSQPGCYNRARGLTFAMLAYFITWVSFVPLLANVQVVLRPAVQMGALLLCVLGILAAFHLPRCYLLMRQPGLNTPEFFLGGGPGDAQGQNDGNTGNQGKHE
Assay: in vitro cell-based assay, enhancement of MSG binding at umami taste receptor
Settings: cells that express the T1R umami taste receptor, from dose-binding curves
Description: Each of Compounds 101-135, as well as Compounds 168 and 169, (as set forth in Table 1) was synthesized according to one of the general procedures set forth above in Examples 1 to 4. Thereafter, the compounds were tested in an in vitro cell-based assay having cells that express the T1R umami taste receptor. Dose-binding curves were recorded and the EC50 was determined for enhancement of MSG binding. Table 2 sets forth the calculated EC50 values for certain tested compounds.

Compound	EC50 [µM]
C/C=C(\C)C(=O)NCCCCNC(=O)c1ccc2c(c1)OCO2 [Compound 106]	6
O=C(/C=C/c1ccccc1)NCCCCNC(=O)c1ccccc1 [Compound 123, N-(4-cinnamamidobutyl)benzamide]	> 50
CC(=O)OC/C=C(\C)C(=O)NCCCCNC(=O)/C=C/c1ccccc1 [Compound 168, (E)-4-((4-cinnamamidobutyl)amino)-3-methyl-4-oxobut-2-en-1-yl acetate]	< 1
CCC(C)C(=O)NCCCCNC(=O)/C=C/c1ccccc1 (stereo not shown) [Compound 109]	> 50
C/C=C(\C)C(=O)NCCCCNC(=O)c1cc(C)c(C)c(C)c1 [Compound 104]	2
CC/C=C(\C)C(=O)NCCCCNC(=O)/C=C/c1ccccc1 [Compound 118, (E)-N-(4-cinnamamidobuty1)-2-methylpent-2-enamide]	> 50
C/C=C(\C)C(=O)NCCCCNC(=O)/C=C/c1ccccc1 [Compound 115, (E)-N-(4-cinnamamidobuty1)-2-methylbut-2-enamide]	< 8
C/C=C(\C)C(=O)NCCCCNC(=O)/C=C/c1ccc(O)c(OC)c1 [Compound 135, (E)-N-(4-((E)-3-(4-hydroxy-3-methoxyphenyl)acrylamido)butyl)-2-methylbut-2-enamide]	> 50
C/C=C(\C)C(=O)NCCCCNC(=O)c1ccc(C)c(C)c1 [Compound 103]	< 1
C/C=C(\C)C(=O)NCCCCNC(=O)/C=C/c1ccc(OCC)cc1 [Compound 130, (E)-N-(4-((E)-3-(4-ethoxyphenyl)acrylamido)butyl)-2-methylbut-2-enamide]	< 1
C/C=C(\C)C(=O)NCCCCNC(=O)/C=C/c1cccc(OC)c1 [Compound 128, (E)-N-(4-((E)-3-(3-methoxyphenyl)acrylamido)butyl)-2-methylbut-2-enamide]	2
C/C=C(\C)C(=O)NCCCCNC(=O)/C=C/c1ccc(OC)cc1OC [Compound 131, (E)-N-(4-((E)-3-(2,4-dimethoxyphenyl)acrylamido)butyl)-2-methylbut-2-enamide]	< 1
CC(C)=C(C)C(=O)NCCCCNC(=O)/C=C/c1ccccc1 [Compound 117, N-(4-cinnamamidobutyl)-2,3-dimethylbut-2-enamide]	> 50
C/C=C(\C)C(=O)NCCCCNC(=O)/C=C/c1ccc(OC)cc1 [Compound 129, (E)-N-(4-((E)-3-(4-methoxyphenyl)acrylamido)butyl)-2-methylbut-2-enamide]	< 1
C/C=C(\C)C(=O)NCCCCNC(=O)/C=C/c1ccccc1OC [Compound 127, (E)-N-(4-((E)-3-(2-methoxyphenyl)acrylamido)butyl)-2-methylbut-2-enamide]	2
C/C=C(/C)C(=O)NCCCCNC(=O)/C=C/c1ccccc1 [Compound 114]	> 50
C/C=C(\C)C(=O)NCCCCNC(=O)/C=C/c1ccc(OC)c(OC)c1 [Compound 132, (E)-N-(4-((E)-3-(3,4-dimethoxyphenyl)acrylamido)butyl)-2-methylbut-2-enamide]	4
O=C(/C=C/c1ccccc1)NCCCCNC(=O)c1ccc(O)cc1 [Compound 126, N-(4-cinnamamidobutyl)-4-hydroxybenzamide]	> 50
C/C=C(\C)C(=O)NCCCCNC(=O)/C=C/c1ccc2c(c1)OCO2 [Compound 133, (E)-N-(4-((E)-3-(benzo[d][1,3]dioxol-5-yl)acrylamido)butyl)-2-methylbut-2-enamide]	20
CC(C)=CC(=O)NCCCCNC(=O)/C=C/c1ccccc1 [Compound 116, N-(4-cinnamamidobutyl)-3-methylbut-2-enamide]	> 50
C/C(=C\CO)C(=O)NCCCCNC(=O)/C=C/c1ccccc1 [Compound 119, (E)-N-(4-cinnamamidobutyl)-4-hydroxy-2-methylbut-2-enamide]	< 12
CC(=O)NCCCCNC(=O)/C=C/c1ccccc1 [Compound 107]	> 50
C/C=C(\C)C(=O)NCCCCNC(=O)/C=C/c1ccc(OC)c(O)c1 [Compound 134, (E)-N-(4-((E)-3-(3-hydroxy-4-methoxyphenyl)acrylamido)butyl)-2-methylbut-2-enamide]	> 50
C/C=C(\C)C(=O)NCCCCNC(=O)c1ccc(C)cc1 [Compound 102]	8
COc1ccc(C(=O)OC/C=C(\C)C(=O)NCCCCNC(=O)/C=C/c2ccccc2)cc1 [Compound 169, (E)-4-((4-cinnamamidobutyl)amino)-3-methyl-4-oxobut-2-en-1-yl 4-methoxy benzoate]	23
C/C=C(\C)C(=O)NCCCCNC(=O)c1ccc(OC)cc1 [Compound 105]	12
O=C(/C=C/c1ccccc1)NCCCCNC(=O)/C=C/c1ccccc1 [Compound 122, (2E,2′E)-N,N′-(butane-1,4-diyl)bis(3-phenylacrylamide)]	> 50
CC(C)C(=O)NCCCCNC(=O)/C=C/c1ccccc1 [Compound 108]	> 50
